ChEMBL document CHEMBL1201862, “PubChem BioAssay data set” (2004)
Values belong to the molecule of their own block, whether it stands above or below them. The source made the active and inactive calls.

Legend:
[1] = growth suppression of PTEN-null colon cells, dose response, cell-based, HCT116 PTEN knockout (AID 1047); type: functional;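 also: HCT116 colon tumor cells with PTEN knocked out; cells exposed to compound for 60 hours before readout; potency for loss of cell viability measured by luminescence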
[2] = growth suppression of beta-catenin-knockout colon cells, dose response, cell-based, HCT116, human colon tumor (AID 1045); type: functional;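 also: HCT116 colon tumor cells with beta catenin knocked out; cells exposed to compound for 60 hours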
Caspase-3 = molecular target: T1, Caspase-3 (Homo sapiens, UniProt P42574); type: functional;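 also: Dose-response selectivity test against caspase-3 for candidate inhibitors of sentrin-specific proteases (SENPs)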
T1 sequence (P42574 whole entry): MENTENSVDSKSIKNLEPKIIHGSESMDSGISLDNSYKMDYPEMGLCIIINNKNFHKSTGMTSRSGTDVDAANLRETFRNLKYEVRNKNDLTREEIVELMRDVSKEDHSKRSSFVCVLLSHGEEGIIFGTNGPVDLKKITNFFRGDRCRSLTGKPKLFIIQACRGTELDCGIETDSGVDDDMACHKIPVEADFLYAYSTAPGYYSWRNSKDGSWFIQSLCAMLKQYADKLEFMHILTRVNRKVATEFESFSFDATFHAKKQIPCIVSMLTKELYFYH

[3] = molecular target: T2, Sentrin-specific protease 7 (Homo sapiens, UniProt Q9BQF6); type: functional;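 also: Luminescence-based dose-response confirmation of ultra-high-throughput screening hits, measuring inhibition of SENP7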
T2 sequence (Q9BQF6 whole entry): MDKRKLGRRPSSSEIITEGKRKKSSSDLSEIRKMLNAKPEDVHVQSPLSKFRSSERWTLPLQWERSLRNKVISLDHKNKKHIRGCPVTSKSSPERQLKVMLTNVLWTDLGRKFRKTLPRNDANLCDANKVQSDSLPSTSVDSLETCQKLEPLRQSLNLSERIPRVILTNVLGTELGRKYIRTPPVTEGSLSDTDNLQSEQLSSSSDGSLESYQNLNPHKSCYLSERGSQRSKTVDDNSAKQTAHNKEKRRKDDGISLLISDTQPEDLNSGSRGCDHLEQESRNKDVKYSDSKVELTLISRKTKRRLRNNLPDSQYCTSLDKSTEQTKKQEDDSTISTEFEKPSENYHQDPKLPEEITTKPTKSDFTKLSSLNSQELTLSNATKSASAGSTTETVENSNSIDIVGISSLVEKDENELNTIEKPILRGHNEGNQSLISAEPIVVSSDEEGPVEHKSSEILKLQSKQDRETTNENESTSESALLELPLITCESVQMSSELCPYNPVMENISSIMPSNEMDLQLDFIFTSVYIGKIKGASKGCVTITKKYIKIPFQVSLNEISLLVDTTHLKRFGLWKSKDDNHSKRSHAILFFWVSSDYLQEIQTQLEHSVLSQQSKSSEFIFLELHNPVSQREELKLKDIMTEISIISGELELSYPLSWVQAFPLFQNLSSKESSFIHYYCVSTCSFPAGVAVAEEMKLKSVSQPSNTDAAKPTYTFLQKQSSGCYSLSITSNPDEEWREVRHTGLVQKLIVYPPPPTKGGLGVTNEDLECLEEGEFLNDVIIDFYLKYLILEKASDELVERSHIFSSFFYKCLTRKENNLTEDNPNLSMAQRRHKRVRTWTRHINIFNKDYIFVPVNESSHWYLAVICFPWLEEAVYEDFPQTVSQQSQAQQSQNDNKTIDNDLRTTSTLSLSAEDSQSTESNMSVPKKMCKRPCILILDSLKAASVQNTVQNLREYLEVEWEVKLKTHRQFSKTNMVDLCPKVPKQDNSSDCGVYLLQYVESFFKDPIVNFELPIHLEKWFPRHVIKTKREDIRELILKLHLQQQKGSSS

[4] = molecular target: T3, Sentrin-specific protease 6 (Homo sapiens, UniProt Q9GZR1); type: functional;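 also: Luminescence-based dose-response confirmatory assay of SENP6 inhibition, following up an ultra-high-throughput screen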
T3 sequence (Q9GZR1 whole entry): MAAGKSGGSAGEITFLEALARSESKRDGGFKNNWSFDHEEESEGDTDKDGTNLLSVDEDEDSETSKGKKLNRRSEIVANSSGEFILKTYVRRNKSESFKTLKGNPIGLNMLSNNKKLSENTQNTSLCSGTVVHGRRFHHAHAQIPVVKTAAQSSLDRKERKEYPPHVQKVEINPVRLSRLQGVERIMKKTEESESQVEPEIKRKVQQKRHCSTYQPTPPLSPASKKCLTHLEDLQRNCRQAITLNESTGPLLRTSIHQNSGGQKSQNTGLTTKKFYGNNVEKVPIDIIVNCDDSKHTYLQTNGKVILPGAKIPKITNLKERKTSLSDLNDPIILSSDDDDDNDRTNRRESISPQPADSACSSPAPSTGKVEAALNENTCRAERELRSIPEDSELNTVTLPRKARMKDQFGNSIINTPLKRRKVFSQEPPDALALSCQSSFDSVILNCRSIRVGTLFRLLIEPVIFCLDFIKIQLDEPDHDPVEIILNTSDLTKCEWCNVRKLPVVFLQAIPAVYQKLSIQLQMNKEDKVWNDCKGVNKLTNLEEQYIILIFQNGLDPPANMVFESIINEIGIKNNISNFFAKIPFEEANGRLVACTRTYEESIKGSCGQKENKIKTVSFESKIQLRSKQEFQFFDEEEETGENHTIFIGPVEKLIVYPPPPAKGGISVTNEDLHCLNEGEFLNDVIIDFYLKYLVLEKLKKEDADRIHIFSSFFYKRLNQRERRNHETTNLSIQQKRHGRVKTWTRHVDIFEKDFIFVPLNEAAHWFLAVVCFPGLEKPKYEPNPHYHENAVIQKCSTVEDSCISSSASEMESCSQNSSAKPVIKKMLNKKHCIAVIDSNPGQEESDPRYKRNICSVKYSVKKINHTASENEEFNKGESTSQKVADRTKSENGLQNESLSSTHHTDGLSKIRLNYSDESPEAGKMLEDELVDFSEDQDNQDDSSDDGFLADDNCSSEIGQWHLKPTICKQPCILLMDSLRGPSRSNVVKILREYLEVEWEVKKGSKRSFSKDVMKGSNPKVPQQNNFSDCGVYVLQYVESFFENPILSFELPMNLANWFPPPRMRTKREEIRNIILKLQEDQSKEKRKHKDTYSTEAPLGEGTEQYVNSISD

[5] = molecular target: T4, Sentrin-specific protease 8 (Homo sapiens, UniProt Q96LD8); type: functional;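 also: luminescence read-out of SENP8 inhibition, dose-response confirmation following an ultra-high-throughput screen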
T4 sequence (Q96LD8 whole entry): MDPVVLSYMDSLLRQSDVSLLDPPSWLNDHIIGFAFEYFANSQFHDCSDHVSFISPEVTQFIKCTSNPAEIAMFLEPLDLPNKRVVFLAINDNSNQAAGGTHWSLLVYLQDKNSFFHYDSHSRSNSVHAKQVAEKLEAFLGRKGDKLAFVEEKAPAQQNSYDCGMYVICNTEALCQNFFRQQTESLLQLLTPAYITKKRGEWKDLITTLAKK

Protein skinhead-1 = molecular target: T5, Protein skinhead-1 (Caenorhabditis elegans, UniProt P34707); type: functional
T5 sequence (P34707 whole entry): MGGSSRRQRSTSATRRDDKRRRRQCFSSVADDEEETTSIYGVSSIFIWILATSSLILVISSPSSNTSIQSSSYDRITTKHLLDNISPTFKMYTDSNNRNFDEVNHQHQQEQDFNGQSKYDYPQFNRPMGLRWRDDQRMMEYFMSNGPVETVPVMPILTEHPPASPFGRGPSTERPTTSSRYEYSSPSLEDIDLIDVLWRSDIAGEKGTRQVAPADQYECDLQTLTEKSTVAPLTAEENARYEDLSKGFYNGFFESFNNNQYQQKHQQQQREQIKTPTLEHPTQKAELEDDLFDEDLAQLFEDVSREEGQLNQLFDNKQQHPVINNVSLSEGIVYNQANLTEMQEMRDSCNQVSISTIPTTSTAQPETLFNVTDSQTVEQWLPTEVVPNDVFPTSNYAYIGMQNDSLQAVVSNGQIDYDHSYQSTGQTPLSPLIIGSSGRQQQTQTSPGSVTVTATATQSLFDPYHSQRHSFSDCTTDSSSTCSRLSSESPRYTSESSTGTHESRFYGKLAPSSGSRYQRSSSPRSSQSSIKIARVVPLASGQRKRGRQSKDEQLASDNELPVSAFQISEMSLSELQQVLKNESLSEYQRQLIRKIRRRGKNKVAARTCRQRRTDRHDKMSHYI

P388/ADR = assay: cells; type: functional; settings: Mus musculus
SN12K1 = assay: cells; type: functional; settings: Homo sapiens
P388 = assay: cells; type: functional; settings: Mus musculus
[6] = A549 cell cytotoxicity, dose response, cytotoxicity control, plate reader, cherry-pick, antagonist series (AID 743412); type: functional, cell-based
[7] = HepG2 cell cytotoxicity, dose response, cytotoxicity control, plate reader, cherry-pick, antagonist series (AID 743416); type: functional, cell-based
[8] = inhibitors of HIV Env-driven cell fusion, dose response, cherry-pick (AID 652057); type: functional, cell-based
[9] = inhibitors of clade B AD8 Env fusion, dose response, cell-based, cherry-pick (AID 652062); type: functional;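 also: luciferase signal from cell-cell fusion driven by HIV-1 clade B AD8 Env; potency is for inhibitors of fusion seen as a drop in luminescence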
[10] = HEp-2 cell cytotoxicity, dose response, cytotoxicity control for RSV inhibitor project, HTS (AID 2410); type: functional; settings: human respiratory syncytial virus

Compound: COc1ccc(/C(O)=C/c2nc3ccc(C(=O)NCCc4cccc(C)c4)cc3nc2O)cc1OC
EC50 [1]: 6.66 µM (active) | EC50 [2]: 5.65 µM (active)

IC50 (Caspase-3): 27.1 µM (active) | IC50 [3]: 6.14 µM (active) | IC50 [4]: 10.3 µM (active)
Compound: O=C(Cn1cc(SCc2ccc(Cl)cc2)c2ccccc21)N1CCOCC1
IC50 [5]: > 100 µM (inactive)

IC50 (Caspase-3): 26.6 µM (active) | IC50 [3]: 5.47 µM (active) | IC50 [4]: 20.1 µM (active)
Compound: Cc1cccc(OCc2cc(-c3ccccc3)no2)c1C
IC50 [5]: 42.8 µM (active)

IC50 (Caspase-3): 39.9 µM (active) | IC50 [3]: 15.6 µM (active) | IC50 [4]: 69.3 µM (active)
Compound: O=C(COc1ccc(Cc2ccccc2)cc1)c1ccc(F)cc1
IC50 [5]: > 100 µM (inactive)

Compound: Cc1c(Cl)cccc1N/C(SCC(=O)N1CCCCCC1)=C(/C#N)c1nc2ccccc2s1
EC50 [1]: 4.06 µM (active) | EC50 [2]: 4.02 µM (active)

Compound: O=C(NC(=S)Nc1ccc(NC(=O)c2cccs2)cc1)c1cc2ccccc2o1
EC50 [1]: 15.5 µM (active) | EC50 [2]: 22.6 µM (active)

IC50 (Caspase-3): 20.5 µM (active) | IC50 [3]: 12.1 µM (active) | IC50 [4]: 6.65 µM (active) | IC50 (Protein skinhead-1): > 100 µM (inactive)
Compound: Cc1ccccc1-c1nnc(-c2ccccc2C)o1
IC50 [5]: 95.5 µM (active)

Compound: CCCCCCCCCCCCCCCCOCC(COP(=O)([O-])OCC[N+](C)(C)C)OCCCCCCCCCCCCCCCC (stereo not given)
GI50 (P388/ADR): > 100 µM (inactive) | GI50 (SN12K1): > 100 µM (inactive) | GI50 (P388): > 100 µM (inactive)

Compound: CN(c1ccccc1)c1c(-c2ccccc2)c(=O)oc2c1ccc1occc12
GI50 (P388/ADR): 74.6 µM (inactive) | GI50 (SN12K1): > 100 µM (inactive) | GI50 (P388): 37.8 µM (inactive)

Compound: COc1cc2c(cc1Oc1c(Oc3c(O)c(OC)cc4c3C(CC(C)C)N(C)CC4)c(OC)cc3c1C(CC(C)C)N(C)CC3)C(CC(C)C)N(C)CC2 (stereo not given)
GI50 (P388/ADR): 0.706 µM (active) | GI50 (SN12K1): 0.794 µM (active) | GI50 (P388): 0.279 µM (active)

Compound: CCN(CC)c1c(C)c(C(=O)OC)nn1-c1ccccc1
GI50 (P388/ADR): 31.6 µM (inactive) | GI50 (SN12K1): > 100 µM (inactive) | GI50 (P388): 34.8 µM (inactive)

Compound: COc1ccccc1CN(C)C[C@@H]1OCc2cnnn2CCCC(=O)N([C@H](C)CO)C[C@H]1C
AC50 [6]: > 52 µM (inactive) | AC50 [7]: 39.8 µM (active)

Compound: COc1cccc(S(=O)(=O)N(C)C[C@H]2Oc3cc(C4=CCCC4)ccc3S(=O)(=O)N([C@H](C)CO)C[C@H]2C)c1
AC50 [8]: 3.31 µM (active) | AC50 [9]: 3.77 µM (active)

IC50 (Caspase-3): 41.8 µM (active) | IC50 [3]: 3.79 µM (active) | IC50 [4]: 8 µM (active)
Compound: Cc1cccnc1Nc1nc(-c2ccc(O)cc2O)cs1
CC50 [10]: 27 µM (active) | IC50 [5]: 15.5 µM (active)

Compound: C=C1CC(OC)(C(O)C(=O)N[C@H]2OCO[C@H]3C2O[C@H](C[C@@H](CO)OC)C(C)(C)C3OC)O[C@H](C)[C@@H]1C (stereo not given in full)
GI50 (P388/ADR): < 0.00931 µM (active) | GI50 (SN12K1): < 0.00931 µM (active) | GI50 (P388): < 0.00931 µM (active)

Compound: O=C1C(=O)c2cc([N+](=O)[O-])ccc2-c2ccc([N+](=O)[O-])cc21
GI50 (P388/ADR): 0.292 µM (active) | GI50 (SN12K1): 0.29 µM (active) | GI50 (P388): 0.201 µM (active)

Compound: O=C(N/N=C/c1cccs1)c1cccc(NC(=O)c2ccc(Cl)cc2)c1
EC50 [1]: 61.1 µM (active) | EC50 [2]: 55.4 µM (active)

IC50 (Caspase-3): 2.59 µM (active) | IC50 [3]: 1.9 µM (active) | IC50 [4]: 2.5 µM (active)
Compound: O=C1c2ccccc2-c2nnc(-c3ccc(F)cc3)cc21
IC50 [5]: 3.58 µM (active)

Compound: COc1ccc2c(c1[N+](=O)[O-])CC[C@@H]1[C@@H]2CC[C@]2(C)C(=O)CC[C@@H]12
GI50 (P388/ADR): 20.9 µM (inactive) | GI50 (SN12K1): > 25 µM (inactive) | GI50 (P388): > 25 µM (inactive)

Compound: Nc1c(C(=O)Nc2ccc(C3=NCCN3)cc2)cccc1C(=O)Nc1ccc(C2=NCCN2)cc1
GI50 (P388/ADR): > 100 µM (inactive) | GI50 (SN12K1): > 100 µM (inactive) | GI50 (P388): 12.5 µM (inactive)

Compound: Oc1ncc(N(CCCl)CCCl)c(O)n1 [URACIL MUSTARD]
GI50 (P388/ADR): 1.77 µM (inactive) | GI50 (SN12K1): 17.4 µM (inactive) | GI50 (P388): 1.26 µM (inactive)
